This is an account of results in US20240398836A1, “EPOXY STEROIDS” (priority 2021, published 2024).

SMILES strings stand for the structures.

One series concerns Nalm-6 cells. Description: Half-maximal apoptosis induction (AC50) in Nalm-6 cells. The series is classed as cell-based. The following applies: Homo sapiens; Nalm-6, 72 h, flow cytometry; read-out: Biological effect: half-maximal apoptosis induction (AC50). Here is the method: Apoptosis Induction in Nalm-6 Cells after Treatment with WIL-071 or Different Steroid Derivatives.
(§1) The cells were incubated in 6-well plates with 1.0·10^5 cells/mL in two milliliters of medium with the respective steroid derivative in different concentrations. The included solvent control (DMSO) served as a control, which was subtracted from all the other measured values, in order not to take into account the spontaneous apoptosis of the cells that takes place independently of the concentration of active ingredient. After 72 h, a modified cell cycle analysis was performed, in order to quantify the proportion of apoptotic cells by flow cytometry. For each concentration of the steroid, the respective mean values f standard deviations, n=3 (*: p<0.05 vs. DMSO, t test) were determined. Using the curve of the dose-effect relationship (steroid concentration−apoptosis induction) formed from these measured values, the steroid concentration at which apoptosis was triggered in 50% of the tested leukemia cells was read.

The subject of series [1] is prednisolone-resistant leukemia cells. Description: Overcoming of prednisolone resistance. The following applies: 72 h. It is filed as cell-based. The procedure:
as §1
Prednisolone resistance is said to be overcome if the induction of apoptosis in prednisolone-resistant leukemia cells is as high as it is in normal leukemia cells.

Series [2] can be described thus: Tolerability (dose escalation, MTD) in an animal model. It is filed as in vivo, NOG-F (Taconic) mice. Here is the method: An incremental increase of dose of the three substances Wil-071, Wil-232 and Wil-369 was performed in 8-week-old female NOG-F (Taconic) mice. Different mice were administered one of up to seven different doses of the test substances. The start was on day 1 with the lowest dose of 10 mg/kg. […] All in all, if possible, the doses 10, 20, 40, 80, 100, 150 and 200 mg/kg are tested. Subsequently, the maximum tolerable dose (MTD) was administered to three more animals, and these were subsequently observed for one week, in order to be able to observe any developing symptoms. For this purpose, the animals were observed and weighed on a daily basis. The body weight is considered an indicator of the general condition of the animals.
(§2) For the MTD experiment, Wil-071 was dissolved in 100% DMSO, and then diluted 1:50 with a 20% (w/v) 2-hydroxypropyl-beta-cyclodextrin (HPβCD) solution. Thus, 200 μL of injection solution (per mouse) of a 40 mg/kg dose could be achieved. For 80, 100 and 150 mg/kg, the DMSO proportion was increased to up to 4% (v/v) in the final injection solution. In addition, ultrasound had to be employed, and the sample had to be heated at 60° C. for up to 45 min. 200 mg/kg was reached only as a milky suspension. […] Therefore, Wil-071 can be considered non-toxic up to 150 mg/kg. The final MTD could not be determined because of the insufficient solubility.
For 100 mg/kg of Wil-232, the end concentration of DMSO in the injection solution was 2%. In order to dissolve Wil-232, the sample also had to be treated with ultrasound, and heated at 60° C. The dose of 150 mg/kg was achieved only with 4% DMSO, and 200 mg/kg was achieved only as a suspension. […] Otherwise, there were no signs of toxicity, so that the substance can be considered tolerable up to 150 mg/kg. In this case too, a final MTD cannot be determined because of insufficient solubility.
Using a DMSO stock and 20% HPβCD solution, a maximum of only 5 mg/ml was dissolved. A further increase could not be achieved even with more DMSO or HPβCD. Thus, above the dose of 40 mg/kg, a higher injection volume was injected in order to reach the corresponding dose. […] For the tolerability under the current solubility conditions, a value of […] is to be applied. This dose was injected into the 8 animals for pharmacokinetics. In this case too, a final MTD cannot be determined because of insufficient solubility.

Series [3] concerns pancreatic carcinoma cells (DAN-G). Briefly: Apoptosis in pancreatic carcinoma cells. The series is classed as cell-based. The following applies: comparable experiments. The procedure:
In contrast to conventional glucocorticoids, the steroid WIL 071 can induce apoptosis also in pancreatic carcinoma cells.
The DNA fragmentation was measured by flow cytometry, see FIG. 11. The experiments were performed in triplicate. The error bars show the standard deviations of the measured values of three independent experiments.
The standard treatment for pancreatic carcinoma includes 5-fluorouracil.

The format of series [4] is physicochemical. Here is the method: All three substances are sparingly soluble in tested injection solutions, so that the maximal dose could not exceed 200 mg/kg.
as §2
For 100 mg/kg of Wil-232, the end concentration of DMSO in the injection solution was 2%. In order to dissolve Wil-232, the sample also had to be treated with ultrasound, and heated at 60° C. The dose of 150 mg/kg was achieved only with 4% DMSO, and 200 mg/kg was achieved only as a suspension. […] In this case too, a final MTD cannot be determined because of insufficient solubility.
Using a DMSO stock and 20% HPβCD solution, a maximum of only 5 mg/ml was dissolved. […] In this case too, a final MTD cannot be determined because of insufficient solubility.

Series [5] is described as follows: Distribution in serum, brain and liver after injection. The series is classed as in vivo, NOG-F (Taconic) mice. The procedure:
Following the determination of the MTD, eight animals were again injected the MTD of the substances, and after 1, 2, 8 and 24 hours, 2 animals each were killed. For pharmacokinetics, the liver, brain and serum of the animals were shock-frosted in liquid nitrogen, and analyzed (see Example 15).
The samples obtained in Example 4 were examined for the contents of the substances. Since WIL-369 can be hydrolyzed to WIL-071, both WIL-369 and WIL-071 were determined in the samples. As far as these substances were detectable in the samples, this is represented in the Figures.

As to `CC(=O)O[C@H]1CC[C@@]23CO[C@@H](C(=O)[C@@]2(O)C1)[C@H]1[C@@H]2CC[C@H]([C@H](C)CCCC(C)C)[C@@]2(C)CC[C@@H]13` [WIL-232, 3β-acetoxy-5α-hydroxy-7β,19-epoxy-cholestan-6-one], the AC50 in the series with Nalm-6 cells worked out at 25 µM. The EC50 in series [1] turned out to be 17.5 µM. The “outcome of injection of the 200 mg/kg suspension” value in series [2] (200 mg/kg as suspension, signs of pulmonary embolism in section) is on record as “immediate death of the animal”. Besides, in series [2] (injection into caudal vein, mice, final MTD not determinable because of solubility), the “dose up to which non-toxic / tolerable” value is listed as “up to 150 mg/kg”.
`O=C1[O][Pt]2([NH][C@@H]3CCCC[C@H]3[NH]2)[O]C1=O` [Oxaliplatin] registered an apoptosis in series [3] (at 50 μM) of 14%.
With `COC(=O)/C=C/C(=O)O[C@H]1CC[C@@]23CO[C@@H](C(=O)[C@@]2(O)C1)[C@H]1[C@@H]2CC[C@H]([C@H](C)CCCC(C)C)[C@@]2(C)CC[C@@H]13` [WIL369, (7β,19-epoxy-5α-hydroxy-6-on-cholestan-3β-yl)methyl ester of fumaric acid], the AC50 in the series with Nalm-6 cells is around 3 µM. In series [1], the response was half-maximal at 5 µM (EC50). In addition, the mortality entry in series [2] (100 mg/kg dose group, one animal) is recorded as “found dead on day 3 after the injection”. Also, in series [2] (100 mg/kg in twice as large injection volumes), the behaviour after injection result is “the animals lay down on their side for some moments, but recovered quickly”. Also, the “tolerability under the current solubility conditions” value in series [2] (mice, injection) is listed as 50 mg/kg. For the same compound, in series [4], the maximum dissolved concentration was at most 5 mg/mL and the solubility entry is given as “lowest solubility”. In addition, the “distribution in the liver” value in series [5] was “a quick degradation takes place in the liver; it is the only place where WIL-369 is found”.
On to `O=c1[nH]cc(F)c(=O)[nH]1` [5-fluorouracil], for which the results for the apoptosis in series [3] (at 30 μM) and in series [3] (at 50 μM) were 24.9% and 21.2%, respectively.
With `C=C1[C@@H]2OC[C@@]3(CC[C@H](O)C[C@]13O)[C@H]1CC[C@]3(C)[C@@H]([C@H](C)CCCC(C)C)CC[C@H]3[C@H]21` [TAS-S399, 7β,19-epoxy-6-methylen-cholest-3β,5α-diol], in the series with Nalm-6 cells, the AC50 worked out at 50 µM. This compound registered an EC50 in series [1] of around 75 µM.
As to `CC[C@H](CC[C@@H](C)[C@H]1CC[C@H]2[C@@H]3[C@H]4OC[C@@]5(CC[C@H](O)C[C@]5(O)C4=O)[C@H]3CC[C@]12C)C(C)C` [WIL-DK-09, 3β,5α-dihydroxy-7β,19-epoxy-stigmastan-6-one], the AC50 with Nalm-6 cells is around 15 µM. The compound also yielded an EC50 in series [1] of around 38 µM.
The matching figures for `CC(C)CCC[C@@H](C)[C@H]1CC[C@H]2[C@@H]3[C@H]4OC[C@@]5(CC[C@H](OS(C)(=O)=O)C[C@]5(O)C4=O)[C@H]3CC[C@]12C` [TAS-S389, (7β,19-epoxy-5α-hydroxy-6-on-cholestan-3β-yl) ester of methanesulfonic acid]: around 20 µM and around 30 µM.
`CC(C)CCC[C@@H](C)[C@H]1CC[C@H]2[C@@H]3[C@H]4OC[C@@]5(CCCC[C@]5(O)C4=O)[C@H]3CC[C@]12C` [TAS-S398, 7β,19-epoxy-5α-hydroxy-cholestan-6-one]: the AC50 in the series with Nalm-6 cells is around 80 µM. Also, the EC50 in series [1] was around 67 µM.
